Results from patent US11186534B2, “Derivatives of sulindac can protect normal cells against oxidative damage” (University of South Alabama, priority 2017, dated 2021).

Tests used:
[1] = test system: Retinal pigmented epithelium cells (ARPE-19); assay: Cell viability assay: protection of RPE cells against oxidative damage from TBHP; format: cell-based
Method: Cultured cells and reagents: Retinal pigmented epithelium cells (ARPE-19) were obtained from American Type Culture Collection (ATCC, Manassas, Va.) and cultured at 37° C. in 5% CO2. All chemicals were purchased from Sigma unless specified.
Cell viability assay: Cells were cultured and assayed for cell viability essentially as described previously (14). ARPE-19 cells were plated at 10,000 cells per well in a 96-well plate. The cells were grown for 18-20 hours, the medium discarded in aseptic conditions and replaced with fresh culture medium containing the indicated drug concentration. The plates were incubated for 24 hours at 37° C. in a 5% CO2 incubator in the presence of sulindac or Compound 9. To examine the treatment effects on oxidative damage to RPE cells, cells were washed and incubated in media without serum with various concentrations of tert-butyl hydroperoxide (TBHP) for an additional 24h. The culture medium was then discarded and the cells were thoroughly rinsed in PBS. Cell viability was determined by using the Cell Titer 96 Aqueous One Cell Proliferation Assay (Promega) according to the manufacturer's instructions. The assay utilizes a tetrazolium compound that is converted into a water-soluble formazan by the action of cellular NADH oxidase activity in metabolically active cells. The formazan was quantified by measuring the absorbance at 490 nm using a colorimetric microtiter plate reader (SpectraMax Plus; Molecular Devices).
In the present studies, a series of compounds were identified as having the ability to protect RPE cells against oxidative damage using tert-butyl hydroperoxide (TBHP), an organic peroxide, as an oxidizing agent (10).

human recombinant COX-2 = molecular target: T1, human recombinant COX-2 (Homo sapiens, UniProt P35354); assay: COX Fluorescent Inhibitor Screening assay, COX-2; format: biochemical; details: FIG. 4B
T1 construct: purchased Cayman Chemical 700100
T1 sequence (P35354 18-604): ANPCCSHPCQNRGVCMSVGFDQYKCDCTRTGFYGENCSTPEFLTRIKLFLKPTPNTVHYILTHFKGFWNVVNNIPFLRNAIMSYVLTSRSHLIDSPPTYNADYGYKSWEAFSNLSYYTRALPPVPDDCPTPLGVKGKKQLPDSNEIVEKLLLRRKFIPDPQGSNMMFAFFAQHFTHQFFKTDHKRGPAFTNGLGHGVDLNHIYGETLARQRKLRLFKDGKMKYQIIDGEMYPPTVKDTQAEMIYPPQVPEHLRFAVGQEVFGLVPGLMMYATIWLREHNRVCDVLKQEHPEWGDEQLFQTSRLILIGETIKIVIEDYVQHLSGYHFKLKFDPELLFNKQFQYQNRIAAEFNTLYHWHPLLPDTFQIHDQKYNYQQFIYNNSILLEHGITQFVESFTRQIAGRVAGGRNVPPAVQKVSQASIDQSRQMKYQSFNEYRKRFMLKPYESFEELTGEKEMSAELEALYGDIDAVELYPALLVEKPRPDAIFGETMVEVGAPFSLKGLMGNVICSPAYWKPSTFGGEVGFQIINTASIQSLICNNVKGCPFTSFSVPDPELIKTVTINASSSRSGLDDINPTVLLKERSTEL
Method: Compounds were assayed for cyclooxygenase (COX) inhibition using the COX Fluorescent Inhibitor Screening Kit from Cayman Chemical (Item #: 700100). Briefly, COX enzyme (ovine COX-1 or human recombinant COX-2) diluted in 1× reaction buffer is incubated with the compound or DMSO control for 20 min at 25° C. in a half-area 96-well black microplate. Background wells are also included that contained no enzyme. Added to each well were heme B, to ensure enzyme activity, and 10-acetyl-3,7-dihydroxyphenoxazine (ADHP) assay reagent. After the 20 min incubation, arachidonic acid (AA) substrate was added to all wells. As shown by the schematic diagram below, active COX enzyme converts AA to hydroperoxy endoperoxide (PGG2). Catalyzed by the secondary peroxidase activity of COX, ADHP can react with PGG2 to form a highly fluorescent compound, resorufin. Fluorescence was measured with a […] excitation wavelength and a 585-595 nm emission wavelength. Decreased fluorescence relative to the DMSO control indicates COX inhibition. See, also, Piazza G A, Keeton A B, Tinsley H N, Gary B D, Whitt J D, Mathew B, Thaiparambil J, Coward L, Gorman, G, Li Y, Sani B, Hobrath J V, Maxuitenko Y Y and Reynolds R C. […] Cancer Prevention Research 2009; 2: 572-580.

[2] = test system: rat intact hearts (Langendorff model); assay: Langendorff model of ischemia/reperfusion injury, infarct size by TTC staining; format: in vivo, Sprague Dawley rats; details: 45 min ischemia and 2 h reperfusion; 0.7 mg/kg daily for 48 h; FIG. 8
Method: The ex vivo Langendorff procedure is a well-established preparation used to investigate heart physiology, ischemia/reperfusion injury, and other cardiovascular insults (23, 24; also see, e.g., reference 22). Sprague Dawley rats (275-325g) were administered either no drug or Compound 9 daily (at 0.7 mg/kg) for a total of two days (two administrations in total). Forty-eight hours after the start of drug exposure, hearts were removed and exposed to 45 min no flow ischemia and 2 h reperfusion in the Langendorff model (hearts were first equilibrated in KHB buffer for 10 min and then subjected to 45 min ischemia followed by 2 h reperfusion with KHB buffer), in the absence of drug.
In LDH and TTC assays for the Langendorff Preparation, coronary effluent samples (500 μL) from the Langendorff preparation were obtained upon attachment of excised heart, every 15 min before ischemia, immediately after 45 min ischemia, and at 15 min intervals during reperfusion. LDH was measured (using a Cytotox-96 nonradioactive cytotoxicity assay kit (Promega), with the absorbance read at 490 nm). […]
The protective (preconditioning) effect of Compound 9 was evaluated in an art-recognized Langendorff model of ischemia/reperfusion injury. […]

COc1cc2c(cc1OC)/C(=C\c1cc(OC)c(OC)c(OC)c1)C(C)=C2CC(=O)O [Compound 9, (Z)-2-(5,6-dimethoxy-2-methyl-1-(3,4,5-trimethoxybenzylidene)-1H-inden-3-yl)acetic acid]
Cyto-protective activity* ([1]; RPE cells, TBHP as oxidizing agent, relative to Sulindac): active
Protective effect on RPE cells in combination with PKG inhibitor Rp-Br-8-PET-cGMPS ([1]; Rp-Br-8-PET-cGMPS 500 μM, 24 h, FIG. 6C): reduces the protection
Lowest concentration found effective in protecting RPE cells ([1]; TBHP, FIG. 3): 10 µM
Protective effect on RPE cells in combination with PKC inhibitor chelerythrine ([1]; chelerythrine 2 μM, 24 h, FIG. 6B): significantly reduces the protective effect
TBHP concentration up to which complete protection of RPE cells was provided ([1]; compound at 25 μM, FIG. 2): ≤ 400 µM
Times more active than sulindac in protecting RPE cells and other cells from oxidative damage ([1]; on a molar basis, stated as 'may be'): at least 10 times
Fold lower effective concentration relative to sulindac (RPE cell protection) ([1]; sulindac 200 μM, Compound 10 at 25 μM, Compound 9 at 10 μM): 20 ×
Protective effect on RPE cells in combination with ROS scavenger tiron ([1]; tiron 1 mM, 24 h, FIG. 6A): attenuates the protective effect
COX-2 inhibition: fold less potent than celecoxib (human recombinant COX-2): approximately 1000 ×
Infarction size (percent of heart infarcted, TTC staining) [2]: below 20%
